{"source": "patent US20090012053A1", "about": "“Use of LXR agonists for the treatment of osteoarthritis” (Wyeth, priority 2006, published 2009)", "system": "aggrecanase", "experiment": "Western blot of aggrecanase-generated aggrecan neoepitopes (BC3, AGEG antibodies) in culture medium of human OA cartilage explants", "format": "cell-based", "description": "FIG. 4A is a Western blot showing aggrecanase-generated aggrecan neoepitopes using BC-3 antibody, which recognizes the N-terminus on aggrecanase-generated aggrecan catabolites. Cartilage explants from two human donors with end stage OA (after joint replacement surgery) were used. Donor #259 is a patient, and donor #261 is a patient. Lanes 1, 5: vehicle. Lanes 2, 6: TO901317 (2 μM). Lanes 3, 7: IL-1β+oncostatin M (OSM) (10 ng/ml each). Lanes 4, 8: IL-1β+OSM+TO901317. FIG. 4B is a Western blot showing aggrecanase-generated aggrecan neoepitopes using AGEG antibody, which recognizes a different epitope on aggrecanase-generated aggrecan catabolites. Lanes 1, 5: vehicle. Lanes 2, 6: TO901317 (2 μM). Lanes 3, 7: IL-1β+OSM (10 ng/ml each). Lanes 4, 8: IL-1β+OSM+TO901317. Fresh cartilage from human OA donors was cut into pieces (˜10 mg/piece, ˜2×2×2 mm). The cartilage explants were randomized into 24 well plates (˜250 mg wet weight/well). Three wells of explants were included for each treatment group. The explants were cultured in 1 ml DMEM/F-12 with 10% FBS for 3 days, then the complete medium was replaced with serum-free medium. Twelve hours later, the medium was removed and fresh serum-free medium (1 ml) was added, followed by LXR agonist T0901317 treatment (2 μM). IL1β/Oncostatin M (10 ng/ml each) were added 8 hours later. The explants were then cultured in the presence or absence of LXR agonist T0901317 and IL1β/Oncostatin M for additional 20 hours. 180 μl of pooled culture medium from each treatment group was deglycosylated with chondroitinase ABC, keratanase, keratanase II in the presence of 50 mM EDTA at 37° C. for 3 hrs. The samples were then concentrated and separated in a 4-12% SDS-PAGE gel. Western analysis was performed using either mouse BC3 neoepitope antibody (1:1500), or rabbit anti-AGEG antibody (1:1000) as the primary antibody, and anti-mouse or anti-rabbit IgG antibody conjugated with […] (1:5000) as the secondary antibody. […] Treatment with T0901317 blocked the induction of BC3 and AEEG release by cytokines. In the experiment using donor #261, BC3- and AEGE-containing aggrecan fragments were released into the culture medium from untreated cartilage explants.", "data": [{"smiles": "O=S(=O)(c1ccccc1)N(CC(F)(F)F)c1ccc(C(O)(C(F)(F)F)C(F)(F)F)cc1", "note": "[Formula T0901317, N-(2,2,2-trifluoroethyl)-N-{4-[2,2,2-trifluoro-1-hydroxy-1-(trifluoromethyl)ethyl]phenyl}benzene sulfonamide]", "values": [{"measurement": "cytokine-induced release of BC3 containing aggrecan fragments into the culture medium", "setting": "donor #259, 2 μM, IL1β/Oncostatin M 10 ng/ml each, FIG. 4A", "value": "blocked"}, {"measurement": "cytokine-induced release of AGEG containing aggrecan fragments into the culture medium", "setting": "donor #259, 2 μM, IL1β/Oncostatin M 10 ng/ml each, FIG. 4B", "value": "blocked"}, {"measurement": "cytokine-induced release of AGEG-containing fragment from the explants", "setting": "donor #261, 2 μM, IL1β/Oncostatin M 10 ng/ml each, FIG. 4B", "value": "it was blocked"}, {"measurement": "amount of BC3-containing aggrecan fragments released into the culture medium without cytokines", "setting": "donor #261, 2 μM, no cytokine, FIG. 4A", "value": "reduced the amount of these fragments"}, {"measurement": "amount of AGEG-containing aggrecan fragments released into the culture medium without cytokines", "setting": "donor #261, 2 μM, no cytokine, FIG. 4B", "value": "reduced the amount of these fragments"}]}]}
